Legend:
Details in all cases: route oral
Rattus norvegicus [1] = assay: Percentage decrease in systolic blood pressure after 6 hr at 1 mg/kg administered perorally in rats; type: functional, Artery
Rattus norvegicus [2] = assay: Percentage decrease in systolic blood pressure after 24 hr at 3 mg/kg administered perorally in rats; type: functional, Artery
Rattus norvegicus [3] = assay: percentage decrease in heart rate after 24 hr at a dose of 10 mg/kg administered perorally in rats.; type: functional
Rattus norvegicus [4] = assay: Percentage decrease in systolic blood pressure (heart rate) after 24 hr at 30 mg/kg administered perorally in rats; type: functional, Artery
Rattus norvegicus [5] = assay: Percentage decrease in systolic blood pressure after 1 hr at 3 mg/kg administered perorally in rats; type: functional, Artery
Rattus norvegicus [6] = assay: Percentage decrease in systolic blood pressure (heart rate) after 6 hr at 10 mg/kg administered perorally in rats; type: functional, Artery
Rattus norvegicus [7] = assay: Effect on spontaneous motor activity in rats after 1 hr at 300 mg/kg given perorally; values less than 25 % are inactive; type: functional
Rattus norvegicus [8] = assay: percentage decrease in heart rate after 4 hr at a dose of 30 mg/kg administered perorally in rats.; type: functional
Rattus norvegicus [9] = assay: Cumulative effect on spontaneous motor activity in rats at 300 mg/kg given perorally; values less than 25 % are inactive; type: functional
Rattus norvegicus [10] = assay: Effect on spontaneous motor activity in rats after 2 hr at 30 mg/kg given perorally; values less than 25 % are inactive; type: functional
Rattus norvegicus [11] = assay: percentage decrease in heart rate after 6 hr at a dose of 30 mg/kg administered perorally in rats.; type: functional
Rattus norvegicus [12] = assay: percentage decrease in heart rate after 6 hr at a dose of 10 mg/kg administered perorally in rats.; type: functional
Rattus norvegicus [13] = assay: percentage decrease in heart rate after 1 hr at a dose of 10 mg/kg administered perorally in rats.; type: functional
Rattus norvegicus [14] = assay: percentage decrease in heart rate after 24 hr at a dose of 3 mg/kg administered perorally in rats.; type: functional
Rattus norvegicus [15] = assay: Percentage decrease in systolic blood pressure after 4 hr at 1 mg/kg administered perorally in rats; type: functional, Artery
Rattus norvegicus [16] = assay: Effect on spontaneous motor activity in rats after 1 hr at 100 mg/kg given perorally; type: functional
Rattus norvegicus [17] = assay: Effect on spontaneous motor activity in rats after 2 hr at 100 mg/kg given perorally; type: functional
Rattus norvegicus [18] = assay: Percentage decrease in systolic blood pressure after 4 hr at 3 mg/kg administered perorally in rats; type: functional, Artery
Rattus norvegicus [19] = assay: percentage decrease in heart rate after 4 hr at a dose of 3 mg/kg administered perorally in rats.; type: functional
Rattus norvegicus [20] = assay: Percentage decrease in systolic blood pressure after 6 hr at 3 mg/kg administered perorally in rats; type: functional, Artery
Rattus norvegicus [21] = assay: Effect on spontaneous motor activity in rats after 2 hr at 300 mg/kg given perorally; values less than 25 % are inactive; type: functional
Rattus norvegicus [22] = assay: Percentage decrease in systolic blood pressure after 24 hr at 10 mg/kg administered perorally in rats; type: functional, Artery
Rattus norvegicus [23] = assay: Percentage decrease in systolic blood pressure after 24 hr at 1 mg/kg administered perorally in rats; type: functional, Artery
Rattus norvegicus [24] = assay: Percentage decrease in systolic blood pressure after 4 hr at 30 mg/kg administered perorally in rats; type: functional, Artery
Rattus norvegicus [25] = assay: percentage decrease in heart rate after 24 hr at a dose of 1 mg/kg administered perorally in rats.; type: functional
Rattus norvegicus [26] = assay: percentage decrease in heart rate after 1 hr at a dose of 1 mg/kg administered perorally in rats.; type: functional
Rattus norvegicus [27] = assay: Effect on spontaneous motor activity in rats after 1 hr at 30 mg/kg given perorally; type: functional
Rattus norvegicus [28] = assay: Percentage decrease in systolic blood pressure after 1 hr at 1 mg/kg administered perorally in rats; type: functional, Artery
Rattus norvegicus [29] = assay: Cumulative effect on spontaneous motor activity in rats at 100 mg/kg given perorally; type: functional
Rattus norvegicus [30] = assay: percentage decrease in heart rate after 24 hr at a dose of 30 mg/kg administered perorally in rats.; type: functional
Rattus norvegicus [31] = assay: percentage decrease in heart rate after 4 hr at a dose of 1 mg/kg administered perorally in rats.; type: functional
Rattus norvegicus [32] = assay: percentage decrease in heart rate after 4 hr at a dose of 10 mg/kg administered perorally in rats.; type: functional
Rattus norvegicus [33] = assay: Percentage decrease in systolic blood pressure (heart rate) after 1 hr at 10 mg/kg administered perorally in rats; type: functional, Artery
Rattus norvegicus [34] = assay: Cumulative effect on spontaneous motor activity in rats at 10 mg/kg given perorally; type: functional
Rattus norvegicus [35] = assay: Percentage decrease in systolic blood pressure (heart rate) after 6 hr at 30 mg/kg administered perorally in rats; type: functional, Artery
Rattus norvegicus [36] = assay: Percentage decrease in systolic blood pressure (heart rate) after 4 hr at 10 mg/kg administered perorally in rats; type: functional, Artery
Rattus norvegicus [37] = assay: Effect on spontaneous motor activity in rats after 1 hr at 10 mg/kg given perorally; type: functional
Rattus norvegicus [38] = assay: percentage decrease in heart rate after 6 hr at a dose of 1 mg/kg administered perorally in rats.; type: functional
Rattus norvegicus [39] = assay: percentage decrease in heart rate after 1 hr at a dose of 3 mg/kg administered perorally in rats.; type: functional
Rattus norvegicus [40] = assay: Cumulative effect on spontaneous motor activity in rats at 30 mg/kg given perorally; type: functional
Rattus norvegicus [41] = assay: Effect on spontaneous motor activity in rats after 2 hr at 10 mg/kg given perorally; type: functional
Rattus norvegicus [42] = assay: percentage decrease in heart rate after 6 hr at a dose of 3 mg/kg administered perorally in rats.; type: functional
Rattus norvegicus [43] = assay: Percentage decrease in systolic blood pressure after 1 hr at 30 mg/kg administered perorally in rats; type: functional, Artery
Rattus norvegicus [44] = assay: Percentage decrease in systolic blood pressure after 4 hr at 300 mg/kg administered perorally in rats; type: functional, Artery
Rattus norvegicus [45] = assay: Percentage decrease in systolic blood pressure after 24 hr at 30 mg/kg administered perorally in rats; type: functional, Artery
Rattus norvegicus [46] = assay: Percentage decrease in systolic blood pressure after 6 hr at 30 mg/kg administered perorally in rats; type: functional, Artery
Rattus norvegicus [47] = assay: percentage decrease in heart rate after 4 hr at a dose of 30 mg/kg administered perorally in rats; type: functional
Rattus norvegicus [48] = assay: percentage decrease in heart rate after 4 hr at a dose of 300 mg/kg administered perorally in rats; type: functional
Rattus norvegicus [49] = assay: percentage decrease in heart rate after 1 hr at a dose of 30 mg/kg administered perorally in rats; type: functional
Rattus norvegicus [50] = assay: percentage decrease in heart rate after 6 hr at a dose of 30 mg/kg administered perorally in rats; type: functional
Rattus norvegicus [51] = assay: percentage decrease in heart rate after 4 hr at a dose of 100 mg/kg administered perorally in rats; type: functional
Rattus norvegicus [52] = assay: percentage decrease in heart rate after 24 hr at a dose of 30 mg/kg administered perorally in rats; type: functional
Rattus norvegicus [53] = assay: Percentage decrease in systolic blood pressure after 4 hr at 100 mg/kg administered perorally in rats; type: functional, Artery

For CCCCCC(C)C(C)c1cc(O)c2c(c1)OC(C)(C)C1=C2CN(C(=O)CO)CC1 (centres undefined), the “Decrease in Systolic blood pressure” value (Rattus norvegicus [1]) was -5%, the “Decrease in Systolic blood pressure” value (Rattus norvegicus [2]) was 3% and the Heart rate (Rattus norvegicus [3]) was 11%. The “Decrease in Systolic blood pressure” value (Rattus norvegicus [4]) was 16%, the “Decrease in Systolic blood pressure” value (Rattus norvegicus [5]) was 9% and the “Decrease in Systolic blood pressure” value (Rattus norvegicus [6]) was 19%. It also gave an Activity (Rattus norvegicus [7]) of -46%, a Heart rate (Rattus norvegicus [8]) of 25% and an Activity (Rattus norvegicus [9]) of -45%. It also gave an Activity (Rattus norvegicus [10]) of 23%, a Heart rate (Rattus norvegicus [11]) of 6% and a Heart rate (Rattus norvegicus [12]) of 7%. For the same molecule, the Heart rate (Rattus norvegicus [13]) was 12%, the Heart rate (Rattus norvegicus [14]) was 6% and the “Decrease in Systolic blood pressure” value (Rattus norvegicus [15]) was 0%. The Activity (Rattus norvegicus [16]) was 29%, the Activity (Rattus norvegicus [17]) was 32% and the “Decrease in Systolic blood pressure” value (Rattus norvegicus [18]) was 15%. The Heart rate (Rattus norvegicus [19]) was -1%, the “Decrease in Systolic blood pressure” value (Rattus norvegicus [20]) was 3% and the Activity (Rattus norvegicus [21]) was -42%. The “Decrease in Systolic blood pressure” value (Rattus norvegicus [22]) was 4%, the “Decrease in Systolic blood pressure” value (Rattus norvegicus [23]) was -5% and the “Decrease in Systolic blood pressure” value (Rattus norvegicus [24]) was 26%. The Heart rate (Rattus norvegicus [25]) was -18%, the Heart rate (Rattus norvegicus [26]) was -18% and the Activity (Rattus norvegicus [27]) was 67%. For the same molecule, the “Decrease in Systolic blood pressure” value (Rattus norvegicus [28]) was 0%, the Activity (Rattus norvegicus [29]) was 30% and the Heart rate (Rattus norvegicus [30]) was -1%. For the same molecule, the Heart rate (Rattus norvegicus [31]) was -18%, the Heart rate (Rattus norvegicus [32]) was 25% and the “Decrease in Systolic blood pressure” value (Rattus norvegicus [33]) was 20%. The Activity (Rattus norvegicus [34]) was 50%, the “Decrease in Systolic blood pressure” value (Rattus norvegicus [35]) was 24% and the “Decrease in Systolic blood pressure” value (Rattus norvegicus [36]) was 34%. It also gave an Activity (Rattus norvegicus [37]) of 38%, a Heart rate (Rattus norvegicus [38]) of -22% and a Heart rate (Rattus norvegicus [39]) of -3%. It also gave an Activity (Rattus norvegicus [40]) of 60%, an Activity (Rattus norvegicus [41]) of 116% and a Heart rate (Rattus norvegicus [42]) of -12%.

For CCCCCC(C)C(C)c1cc(O)c2c(c1)OC(C)(C)C1CCN(C(=O)CN3CCOCC3)C=C21 (centres undefined), the “Decrease in Systolic blood pressure” value (Rattus norvegicus [43]) was -8%, the “Decrease in Systolic blood pressure” value (Rattus norvegicus [44]) was 26% and the “Decrease in Systolic blood pressure” value (Rattus norvegicus [45]) was -6%. The “Decrease in Systolic blood pressure” value (Rattus norvegicus [46]) was -1%, the Heart rate (Rattus norvegicus [47]) was 6% and the Heart rate (Rattus norvegicus [48]) was 9%. It also gave a Heart rate (Rattus norvegicus [49]) of -16%, a Heart rate (Rattus norvegicus [50]) of 0% and a Heart rate (Rattus norvegicus [51]) of 5%. The “Decrease in Systolic blood pressure” value (Rattus norvegicus [24]) was -5%, the Heart rate (Rattus norvegicus [52]) was 14% and the “Decrease in Systolic blood pressure” value (Rattus norvegicus [53]) was 23%.

From ChEMBL document CHEMBL1122324, “New antihypertensive cannabinoids” (1983)
